Source: US5256658A, “Angiotensin II inhibitors” (Ortho Pharmaceutical Corporation, priority 1993, dated 1993)

Experiments:
[1] = test system: angiotensin II receptor; experiment: Screening Potential Angiotensin II Receptor Antagonists in Salt-Depleted Normotensive Rats; format: in vivo, rat (Sprague-Dawley)
Description: 2. Test Procedure for Screening Potential Angiotensin II Receptor Antagonists in Salt-Depleted Normotensive Rats
Purpose: This test is designed to detect hypotensive effects of a compound after oral dosing in normotensive animals made renin-dependent by salt depletion.
Method: Male 350-450 g Sprague-Dawley rats are implanted with teflon microcannulae via the middle caudal artery under 20 mg/kg intravenous Brevital® anesthesia and permitted a 4-7 day surgical recovery period. Throughout recovery and testing animals are individually housed unrestrained in standard rat metabolism cages and receive continuous 0.5 ml/h intra-arterial 0.25N saline infusion through a spring-shielded swivelling tether connected to an infusion/blood pressure recording system to maintain arterial cannula patency. Animals are maintained on Low Sodium (0.03%) Purina Rat Chow #5881 throughout the study. After the recovery period animals are given oral 50 mg/kg furosemide (Lasix, Hoechst-Roussel Pharmaceutical) doses on two consecutive days to produce marked diuresis and plasma volume depletion that makes maintenance of normal blood pressure highly dependent on function of the renin-angiotensin-aldosteronesystem. Three hours after the second furosemide dose, rats are given test compound uniformly suspended in 1% methylcellulose (n=3/dose level) or 1 mL 1% methylcellulose vehicle (n=3) orally by gavage and blood pressure is continuously recorded for 24 h using a Buxco computerized data recording system. Compound-induced changes in blood pressure are compared to concurrent vehicle control blood pressures in order to detect drug effect.
Interpretation: Prior to salt depletion, normotensive rats typically show a plasma renin activity (PRA, ng angiotensin I/mL plasma/h, RIA) of 0.7. After the salt-depletion protocol PRA values taken 3 h after the furosemide dose have risen to about 7.4.
Compounds that decrease blood pressure 10 or more mmHg (MAP) compared to concurrent control after oral dosing are considered active in this test. Maximum possible response is about -35 mmHg. […]

[2] = target: T1, angiotensin II receptor (Oryctolagus cuniculus, UniProt P34976)
T1 sequence (P34976 1-359): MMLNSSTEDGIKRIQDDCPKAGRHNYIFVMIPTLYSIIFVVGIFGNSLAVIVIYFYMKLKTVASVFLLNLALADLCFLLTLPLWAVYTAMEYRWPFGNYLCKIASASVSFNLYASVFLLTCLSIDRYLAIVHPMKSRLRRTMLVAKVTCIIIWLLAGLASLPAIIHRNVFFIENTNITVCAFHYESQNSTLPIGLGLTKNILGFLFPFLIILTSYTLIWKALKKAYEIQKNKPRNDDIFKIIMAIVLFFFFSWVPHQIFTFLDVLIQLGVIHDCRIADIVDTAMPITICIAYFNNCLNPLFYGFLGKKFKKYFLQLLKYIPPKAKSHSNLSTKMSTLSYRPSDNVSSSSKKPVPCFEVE
Description: Inhibition of Angiotensin II Dose-Response in Rabbit Thoracic Aorta:
Purpose: To identify competitive receptor antagonists of an angiotensin II-1 activity, i.e., angiotensin II-induced vasoconstriction in in vitro aortic rings.
Procedure: 1.8 to 2.3 kg New Zealand white rabbits are sacrificed with an intravenous sodium pentobarbital overdose and the thoracic aorta gently dissected free from the aortic root to the level of the diaphragm, into ice cold Krebs bicarbonate buffer. The aorta is gently freed of clots and adventitia and cleanly cut with a scalpel into 5 mm segments. Each ring is suspended from a Gould isotonic force transducer in a tissue bath containing 15 mL oxygenated Krebs bicarbonate buffer regulated at 37° C. Initial tension is adjusted to 4.0 g and equilibrated over three 20-min wash periods to achieve a baseline tension of 3.0 g. Graded angiotensin II doses are given cumulatively to achieve a maximal contraction. Three 20-min washes are performed to remove the initial angiotensin II effect. […]
Analysis: Angiotensin II vasoconstrictor tension in grams is expressed as a percent of maximal contraction for the before and after test compound angiotensin II dose-responses. Angiotensin II ED50 and ED90 values are determined from the angiotensin II dose-response curves generated before and after test compound. […]

[3] = test system: angiotensin II receptor; experiment: Oral activity in the spontaneously hypertensive rat, as determined in test procedure 2; format: in vivo

Row | Kb [2] [nM] | SMILES | blood pressure response ([1]; normotensive rats that have not been salt-depleted) | plasma renin activity (PRA) ([1]; salt-depleted rats after DuP-753 treatment, RIA) | blood pressure decrease (mean arterial pressure, MAP) ([1]; salt-depleted rats, typical response) | maximum mean arterial pressure drop [3] [mm Hg] | oral activity [3] | duration ([3]; duration of blood pressure effect) [h]
1 | – | CCCCc1nc(Cl)c(CO)n1Cc1ccc(-c2ccccc2-c2nn[nH]n2)cc1 [DuP-753] | does not change | about 41.4 ng angiotensin I/mL plasma/h | about 35 mmHg | – | – | –
2 | 123 | C[C@@H]1CN(Cc2ccc(-c3ccccc3-c3nn[nH]n3)cc2)C[C@H](C)O1 [cis-2,6-Dimethyl-4-[4-(2'-tetrazolophenyl)phenylmethyl]morpholine] | – | – | – | 31 | good oral activity | 12
